Patent US9115072B2, “Compounds and method for reducing uric acid” (WELLSTAT THERAPEUTICS CORPORATION, priority 2008, dated 2015)

Target: T1, human URAT1 (Homo sapiens, UniProt Q96S37)
T1 construct: The full-length hURAT1 cDNA was obtained from the vector pCMV6-XL5 and subcloned into the expression vector pCMV6-Neo
T1 sequence (Q96S37 1-553): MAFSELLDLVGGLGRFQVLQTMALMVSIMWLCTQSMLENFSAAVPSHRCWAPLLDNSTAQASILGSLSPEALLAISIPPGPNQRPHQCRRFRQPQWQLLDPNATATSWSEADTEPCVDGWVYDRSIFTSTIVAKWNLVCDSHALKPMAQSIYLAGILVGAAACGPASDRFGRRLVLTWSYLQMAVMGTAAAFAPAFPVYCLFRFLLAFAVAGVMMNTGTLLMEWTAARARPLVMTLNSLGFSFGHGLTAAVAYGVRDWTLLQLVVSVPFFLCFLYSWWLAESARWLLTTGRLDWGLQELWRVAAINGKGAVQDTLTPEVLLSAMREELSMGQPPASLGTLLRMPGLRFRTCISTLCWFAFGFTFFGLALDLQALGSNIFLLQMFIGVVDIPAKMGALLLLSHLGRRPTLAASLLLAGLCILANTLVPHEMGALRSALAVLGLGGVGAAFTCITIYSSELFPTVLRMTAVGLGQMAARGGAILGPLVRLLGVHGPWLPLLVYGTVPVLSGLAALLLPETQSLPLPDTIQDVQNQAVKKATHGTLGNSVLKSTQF
Experiment: URAT1 inhibition assay, [8-14C] urate uptake in hURAT1-HEK cells
Assay type: cell-based
Conditions: 50 μM [8-14C] urate

Cc1ccc(CC(=O)O)cc1OCc1c(C)cccc1C [Compound EH, 2-(3-(2,6-Dimethylbenzyloxy)-4-methylphenyl)acetic acid]
IC50: 80 nM
inhibition at 10 µM (drug concentration typically 10 micromolar, read-out: % of Inhibition (uric acid uptake)): 95.9%
